Assay results from patent US10865191B2, “Heterocyclic compounds useful as modulators of TNF alpha” (BRISTOL-MYERS SQUIBB COMPANY, priority 2015, dated 2020).

biological target: TNFα (Homo sapiens, UniProt P01375); assay: TNF induced HEK-Blue assay (NF-kB-driven secreted alkaline phosphatase reporter); assay type: cell-based; conditions: TNF induced HEK-Blue assay IC50 value, TNFα 0.5 ng/mL, HEK-Blue-CD40L cells, 18 h
Outline: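 HEK-Blue-CD40L cells (NF-kB-driven SEAP reporter), 20,000/well, added after 30 min pre-incubation of compound (0.004–25 μM final) with TNFα 0.5 ng/mL final at 37 °C; 18 h incubation. SEAP read with QUANTI-Blue at 620 nm; IC50 from 4-parameter logistic fit, normalized to unstimulated and stimulated DMSO controls.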

Sequence of TNFα (P01375 77-233 limits assumed): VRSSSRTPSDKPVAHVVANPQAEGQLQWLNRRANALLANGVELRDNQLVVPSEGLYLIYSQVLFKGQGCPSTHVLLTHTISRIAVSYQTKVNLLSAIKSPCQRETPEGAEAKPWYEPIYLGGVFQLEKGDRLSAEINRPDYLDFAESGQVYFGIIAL

IC50 | Compound
< 1000 nM | C[C@@H](Nc1c(Cl)cnc2ccc(-c3cnc(C(C)(C)O)nc3)cc12)c1ccccc1F [Example 217, (R)-2-(5-(3-chloro-4-(1-(2-fluorophenyl)ethylamino)quinolin-6-yl)pyrimidin-2-yl)propan-2-ol]

same assay, conditions: TNFα 0.5 ng/mL, HEK-Blue-CD40L cells, 18 h; read-out: TNF induced HEK-Blue assay IC50 value

IC50 | Compound
< 1000 nM | CC(C)(O)c1ncc(-c2ccc3ncc(Cl)c(NC(c4ccccc4)C(F)F)c3c2)cn1 (racemic) [Example 57, 2-(5-(3-chloro-4-((2,2-difluoro-1-phenylethyl)amino)quinolin-6-yl)pyrimidin-2-yl)propan-2-ol]
< 1000 nM | Cc1ncc(-c2ccc(F)c([C@@H](C)Nc3c(Cl)cnc4ccccc34)c2)cn1 [Example 535, (R)-3-chloro-N-(1-(2-fluoro-5-(2-methylpyrimidin-5-yl)phenyl)ethyl)quinolin-4-amine]
< 1000 nM | C[C@@H](Nc1c(Cl)cnc2ccc(-c3cnc(C(C)(C)O)nc3)cc12)c1cc(CC(O)CO)ccc1F (mixture of isomers) [Example 399, 3-(3-((R)-1-((3-chloro-6-(2-(2-hydroxypropan-2-yl)pyrimidin-5-yl)quinolin-4-yl)amino)ethyl)-4-fluorophenyl)propane-1,2-diol]
10000 to 25000 nM | CC(C)(O)c1ncc(-c2ccc3ncc(Cl)c(CNc4ccccc4)c3c2)cn1 [Example 11, 2-(5-(3-chloro-4-((phenylamino)methyl)quinolin-6-yl)pyrimidin-2-yl)propan-2-ol]
< 1000 nM | C[C@@H](Nc1c(Cl)cnc2ccc(-c3ccc(CNC(N)=O)cc3)cc12)c1ccccc1F [Example 569, (R)-1-(4-(3-chloro-4-((1-(2-fluorophenyl)ethyl)amino)quinolin-6-yl)benzyl)urea]
1000 to 10000 nM | C[C@@H](Nc1c(Cl)cnc2ccccc12)c1cc(-c2ccnnc2)ccc1F [Example 515, (R)-3-chloro-N-(1-(2-fluoro-5-(pyridazin-4-yl)phenyl)ethyl)quinolin-4-amine]
10000 to 25000 nM | CC(Nc1c(Cl)cnc2ccc(-c3ccc(C(C)(C)O)cc3)cc12)c1nccn1C (racemic) [Example 201, 2-(4-(3-chloro-4-((1-(1-methyl-1H-imidazol-2-yl)ethyl)amino)quinolin-6-yl)phenyl)propan-2-ol]
< 1000 nM | C[C@@H](Nc1c(Cl)cnc2ccc(-c3ccc(N4CCO[C@@H](CO)C4)nc3)cc12)c1ccccc1F [Example 83, ((R)-4-(5-(3-chloro-4-(((R)-1-(2-fluorophenyl)ethyl)amino)quinolin-6-yl)pyridin-2-yl)morpholin-2-yl)methanol]
< 1000 nM | C[C@@H](Nc1c(Cl)cnc2ccc(-c3cnc(C(C)(C)O)nc3)cc12)c1cc(C(O)CO)ccc1F (single isomer, unassigned) [Example 400]
1000 to 10000 nM | C[C@@H](Nc1c(Cl)cnc2ccccc12)c1cc(CCCO)ccc1F [Example 464, (R)-3-(3-(1-((3-chloroquinolin-4-yl)amino)ethyl)-4-fluorophenyl)propan-1-ol]
< 1000 nM | CC(Nc1c(Cl)cnc2ccc(-c3ccc(C(C)(C)O)cc3)cc12)c1cncs1 (racemic) [Example 211, 2-(4-(3-chloro-4-((1-(thiazol-5-yl)ethyl)amino)quinolin-6-yl)phenyl)propan-2-ol]
< 1000 nM | C[C@@H](Nc1c(Cl)cnc2ccc(-c3cnc(C(C)(C)O)nc3)cc12)c1cc(CN)ccc1F [Example 429, (R)-2-(5-(4-((1-(5-(aminomethyl)-2-fluorophenyl)ethyl)amino)-3-chloroquinolin-6-yl)pyrimidin-2-yl)propan-2-ol]
< 1000 nM | C[C@@H](Nc1c(Cl)cnc2ccccc12)c1cc(-c2ccccc2)ccc1F [Example 459, (R)-3-chloro-N-(1-(4-fluoro-[1,1′-biphenyl]-3-yl)ethyl)quinolin-4-amine]
< 1000 nM | C[C@@H](Nc1c(Cl)cnc2ccc(-c3cnc(C(C)(C)O)nc3)cc12)c1cc(S(N)(=O)=O)ccc1F [Example 426, (R)-3-(1-((3-chloro-6-(2-(2-hydroxypropan-2-yl)pyrimidin-5-yl)quinolin-4-yl)amino)ethyl)-4-fluorobenzenesulfonamide]

Continued, compound first:

Compound | IC50
CC(Nc1c(Cl)cnc2ccc(-c3cnc(N4CCNC(=O)C4)nc3)cc12)c1nc(C(N)=O)ccc1F (single isomer, unassigned) [Example 26, 6-(1-((3-chloro-6-(2-(3-oxopiperazin-1-yl)pyrimidin-5-yl)quinolin-4-yl)amino)ethyl)-5-fluoropicolinamide] | < 1000 nM
Cc1nc2ccc(-c3cnc(N4CCOCC4)nc3)cc2c(NC(C)c2ccccc2F)c1Cl (racemic) [Example 311, 3-chloro-N-(1-(2-fluorophenyl)ethyl)-2-methyl-6-(2-morpholinopyrimidin-5-yl)quinolin-4-amine] | < 1000 nM
CC(Nc1c(Cl)cnc2cc(F)c(-c3cnc(C(O)CN4CCOCC4)cn3)cc12)c1ccccc1F (stereo not drawn) [Example 274, 1-(5-(3-chloro-7-fluoro-4-((1-(2-fluorophenyl)ethyl)amino)quinolin-6-yl)pyrazin-2-yl)-2-morpholinoethan-1-ol] | 1000 to 10000 nM
Cc1ccc(C)c(Nc2c(Cl)c(CN=[N+]=[N-])nc3ccc(-c4ccc(C#N)nc4)cc23)c1 [Example 42, 5-(2-(azidomethyl)-3-chloro-4-((2,5-dimethylphenyl)amino)quinolin-6-yl)picolinonitrile] | 1000 to 10000 nM
CC(C)CC(C)Nc1c(Cl)cnc2ccc(-c3cnc(C(C)(C)O)nc3)cc12 (racemic) [Example 135, 2-(5-(3-chloro-4-((4-methylpentan-2-yl)amino)quinolin-6-yl)pyrimidin-2-yl)propan-2-ol] | < 1000 nM
CC(Nc1c(Cl)cnc2cc(F)c(-c3ccc(C(O)CN4CCOCC4)cc3)cc12)c1ccccc1F (stereo not drawn) [Example 286, 1-(4-(3-chloro-7-fluoro-4-((1-(2-fluorophenyl)ethyl)amino)quinolin-6-yl)phenyl)-2-morpholinoethan-1-ol] | < 1000 nM
CC(Nc1c(Cl)cnc2cc(F)c(-c3cnc(N4CCN(C(=O)[C@@H](N)CO)CC4)nc3)cc12)c1ccccc1F (single isomer, unassigned) [Example 604] | < 1000 nM
C[C@@H](Nc1c(Cl)cnc2cc(F)c(-c3cnc(C(C)(C)O)nc3)cc12)c1cc(C#N)ccc1F [Example 379, (R)-3-(1-((3-chloro-7-fluoro-6-(2-(2-hydroxypropan-2-yl)pyrimidin-5-yl)quinolin-4-yl)amino)ethyl)-4-fluorobenzonitrile] | < 1000 nM
CC(C)(O)c1ncc(-c2nc3c(N[C@@H](c4cc(CO)ccc4F)C(F)F)c(Cl)cnc3cc2F)cn1 [Example 501, (S)-2-(5-(7-chloro-8-((2,2-difluoro-1-(2-fluoro-5-(hydroxymethyl)phenyl)ethyl)amino)-3-fluoro-1,5-naphthyridin-2-yl)pyrimidin-2-yl)propan-2-ol] | < 1000 nM
CC(C)(O)c1ncc(-c2nc3c(N[C@H](c4cc(C#N)ccc4F)C(F)F)c(Cl)cnc3cc2F)cn1 [Example 489, (R)-3-(1-((3-chloro-7-fluoro-6-(2-(2-hydroxypropan-2-yl)pyrimidin-5-yl)-1,5-naphthyridin-4-yl)amino)-2,2-difluoroethyl)-4-fluorobenzonitrile] | < 1000 nM
Cc1nc2ccc(-c3cnc(C(C)(C)O)nc3)cc2c(N[C@H](C)c2cc(C#N)ccc2F)c1C [Example 314, (R)-4-fluoro-3-(1-((6-(2-(2-hydroxypropan-2-yl)pyrimidin-5-yl)-2,3-dimethylquinolin-4-yl)amino)ethyl)benzonitrile] | < 1000 nM
CC(Nc1c(Cl)cnc2cc(F)c(-c3cnc(C(O)CN4CCOCC4)cn3)cc12)c1ccccc1F (stereo not drawn) [Example 273, 1-(5-(3-chloro-7-fluoro-4-((1-(2-fluorophenyl)ethyl)amino)quinolin-6-yl)pyrazin-2-yl)-2-morpholinoethan-1-ol] | < 1000 nM
CC(C)(O)c1ncc(-c2nc3c(N[C@@H](c4cc(C#N)ccc4F)C(F)F)c(Cl)cnc3cc2F)cn1 [Example 498, (S)-3-(1-((3-chloro-7-fluoro-6-(2-(2-hydroxypropan-2-yl)pyrimidin-5-yl)-1,5-naphthyridin-4-yl)amino)-2,2-difluoroethyl)-4-fluorobenzonitrile] | < 1000 nM
CCC(Nc1c(Cl)cnc2ccc(-c3cnc(N4CCNC(=O)C4)nc3)cc12)c1nc(C(N)=O)ccc1F (racemic) [Example 23, 6-(1-((3-chloro-6-(2-(3-oxopiperazin-1-yl)pyrimidin-5-yl)quinolin-4-yl)amino)propyl)-5-fluoropicolinamide] | < 1000 nM
COC(=O)[C@H](CNC(C)=O)N1CCN(c2ncc(-c3ccc4ncc(Cl)c(N[C@H](C)c5ccccc5F)c4c3)cn2)CC1 [Example 109, methyl (S)-3-acetamido-2-(4-(5-(3-chloro-4-(((R)-1-(2-fluorophenyl)ethyl)amino)quinolin-6-yl)pyrimidin-2-yl)piperazin-1-yl)propanoate] | 1000 to 10000 nM
CCCCCC(C)Nc1c(Cl)cnc2ccc(-c3cnc(C(C)(C)O)nc3)cc12 (racemic) [Example 139, 2-(5-(3-chloro-4-(heptan-2-ylamino)quinolin-6-yl)pyrimidin-2-yl) propan-2-ol] | < 1000 nM
Cc1nc2ccc(-c3cnc(C(C)(C)O)nc3)cc2c(N[C@H](C)c2cc(OCCO)ccc2F)c1Cl [Example 435, (R)-2-(5-(3-chloro-4-((1-(2-fluoro-5-(2-hydroxyethoxy)phenyl)ethyl)amino)-2-methylquinolin-6-yl)pyrimidin-2-yl)propan-2-ol] | < 1000 nM
Cc1nc2cc(F)c(-c3cnc(C(C)(C)O)nc3)nc2c(N[C@@H](c2cc(CO)ccc2F)C(F)F)c1Cl [Example 496, (S)-2-(5-(7-chloro-8-((2,2-difluoro-1-(2-fluoro-5-(hydroxymethyl)phenyl)ethyl)amino)-3-fluoro-6-methyl-1,5-naphthyridin-2-yl)pyrimidin-2-yl)propan-2-ol] | < 1000 nM
